Measured values taken from ChEMBL document CHEMBL1153190, “Novel neofusapyrones isolated from Verticillium dahliae as potent antifungal substances” (Bioorg Med Chem Lett, 2010).
Calls of active or inactive are those of the source. No cut-off for these calls is given here.

Key:
Staphylococcus aureus = assay: Antibacterial activity against methicillin-resistant Staphylococcus aureus Isolate 87-7927 at 10 ug; format: functional, organism-based
Bipolaris oryzae = assay: Antifungal activity against Cochliobolus miyabeanus at 100 ng/ml; format: functional, organism-based
HeLa = assay: Cytotoxicity against human HeLa cells; format: cell-based
HepG2 = assay: Cytotoxicity against human HepG2 cells; format: cell-based

SMILES	Activity (Staphylococcus aureus)	Activity (Bipolaris oryzae)	Activity (HeLa)	Activity (HepG2)
CCCCCCC(C)C/C(C)=C\C(C)/C=C(C)/C=C/C(O)C(C)(C)c1cc(O)c([C@@H]2O[C@H](CO)C[C@H](O)[C@H]2O)c(=O)o1 (some centres not stated) [DEOXYNEOFUSAPYRONE]	Active	Active	Non-toxic	Non-toxic
CCCCCCC(C)C/C(C)=C\C(C)/C=C(C)/C=C/C(O)C(C)c1cc(O)c([C@@H]2O[C@H](CO)C[C@H](O)[C@H]2O)c(=O)o1 (some centres not stated)	–	Active	Non-toxic	Non-toxic
